Results on one molecule are retold here after patent US10682341B2, “Method for treating obesity, diabetes, cardiovascular and kidney diseases by regulating GPR30/GPER activity” (STC.UNM, priority 2015, dated 2020).

For test [1], the system named is human adipocytes. Briefly: Lipid accumulation in human adipocytes (Oil Red O staining). Type of test: cell-based. The settings on record: G-1 during differentiation. The procedure: (§1) For human adipocytic differentiation, human preadipocytes were purchased from Zen-Bio and differentiated with or without GPER-selective agonist G-1. Mouse myoblasts, C2C12 were grown in low glucose DMEM with 10% FBS and subcultured before reaching 70-80% confluence. For differentiation into myocytes, cells were seeded on 12-well plates and at confluence were switched to DMEM containing 2% horse serum. The medium was changed every other day and cells were used for glucose uptake assay between 6-8 days post differentiation.
(§2) Eight days after differentiation, adipocytes are briefly rinsed with PBS and fixed in 4% PFA for 30-60 min and washed with PBS. Freshly prepared Oil Red-O working solution was added to cells and incubated for ˜60 min at room temperature, washed t 3 times with PBS and air dried. Images were acquired or lipids extracted with isopropanol and absorbance at 520 nm to quantitate the lipids measured.

The test system of test [2] is PPARγ and ap2. Briefly: Expression of adipogenic markers in 3T3-L1 cells. Type of test: cell-based, mouse. The settings on record: 3T3-L1 cells differentiated in the presence of G-1. The procedure: (§3) Mouse fibroblasts, NIH 3T3-L1 cells were grown in DMEM with 10% FBS and subcultured before reaching 70% confluence. For differentiation, cells were seeded in 24 well plates or 60 mm dishes and allowed to grow till confluent. Subsequently medium was changed and cells were kept for additional two days before adding the differentiation cocktail in the medium (0.5 mM isomethylbutylxanthine, 1 μM dexamethasone and 10 μg/mL insulin) for 3 days (with or without GPER selective agonist G-1). The medium was then changed to the regular DMEM with FBS as above.
(§4) Total RNA was extracted from frozen tissues (˜100 mg) or cultured cells using the RNeasy Mini Kit. Isolated RNA (˜100 ng) was used for cDNA synthesis using the ImProm-II™ Reverse Transcription System in a final reaction volume of 20 μL in a denaturation and extension cycle. Subsequently, quantitative real time PCR was carried out in a 7500 Fast Real-Time PCR System. Gene expression was normalized to 18S RNA as an internal reference and fold change over the control was calculated using the ddCt method. Quantitative real-time PCR analyses were performed in triplicate from a minimum of 5 separate animals.

Test [3] has as its system differentiated murine adipocytes. Briefly: Mitochondrial biogenesis in differentiated murine adipocytes. Type of test: cell-based, mouse. Here is the method: as §3
Test [4] concerns high fat diet male mice. Briefly: Diet induced obesity (high fat diet) male mouse model. Type of test: in vivo. As to conditions: HFD males. An excerpt:
(§5) For females, an ovariectomized female mouse model, with ovary-intact control animals, fed a regular chow diet, was employed. Loss of the ovaries results in the loss of endogenous estrogenic protection towards metabolic pathophysiology and weight gain, resulting in increased overall weight gain, abdominal adiposity and ensuing metabolic (including glucose and lipid) dysfunction in ovariectomized mice compared to ovary-intact control animals. For males, the model employed involves diet-induced obesity. In the absence of the estrogenic protection as in female mice, male mice fed a high fat chow gain weight and suffer from metabolic pathophysiology compared to mice on normal chow. […].
(§6) For measurement of food intake, activity and energy expenditure, mice were placed in metabolic cages. All measurements were obtained using a computer-controlled indirect calorimetry system. Prior to data collection, mice were acclimatized in the chambers for 24 hours, after which data was collected for the subsequent 48 hours, including two complete light cycles (14 h) and two complete dark cycles (10 h). Oxygen consumption (VO2), carbon dioxide production (VCO2), activity and food consumption were measured for 48 hours. The animals had ad libitum access to standard rodent chow or high fat chow and water during the study. To detect ambulatory activity and position, beam breaks in all the three planes, X, Y and Z directions, were utilized to obtain total activity. To calculate oxygen consumption (VO2) and carbon dioxide production (VCO2) were assessed by measuring the gas concentrations at the inlet and outlet of the sealed chambers.
(§7) Post euthanasia, tissues (epididymal/perirenal fat, liver) were dissected and weighed. Tibia length was measured after clearing of soft tissue. For H&E staining, at sacrifice, tissues were fixed in buffered formalin for 24 hours and subsequently embedded in paraffin. Tissue sections (5 μm-thick) were stained with Hematoxylin and Eosin.
(§8) Prior to GTT and ITT, mice were fasted for 4 hours and basal glucose (0 min) was measured. Subsequently, mice were intraperitoneally injected with glucose (2 g/kg body weight) or insulin (0.5 U/kg body weight). After the injection, blood glucose was monitored at regular time intervals (15, 30, 60 and 120 min after injection) from tail nicks. Additionally, for measuring the fasting insulin, blood was collected from the tail nicks at 0 time point and plasma was separated and used for measuring the fasting insulin using a mouse Insulin ELISA kit. Blood glucose was monitored using a glucose meter.

In test [5] the test system is ovariectomized female mice. Nature of the test: Ovariectomized female mouse model of obesity and diabetes. As to conditions: OVX females. Type of test: in vivo.
Source text: as §5, §6, §7, §8, §4

The test system of test [6] is AMP-activated protein kinase (AMPK). Nature of the test: AMPK activation in differentiated murine adipocytes. Type of test: cell-based, mouse. The procedure: as §3
Tissues were homogenized in RIPA buffer supplemented with sodium fluoride (50 mM), sodium orthovanadate (1 mM), phenylmethylsulfonylfluoride (1 mM), and protease cocktail. Protein amounts were quantified by Bradford method and equal amounts (30 μg) of protein were loaded for all the samples on 4-20% SDS-PAGE gel. Proteins were then transferred to polyvinylidene fluoride membrane, blocked with 3% newborn calf serum in TBST before overnight incubation with primary antibodies. Subsequently, blots were incubated with secondary HRP-conjugated antibodies and developed using SuperSignal West Pico Chemiluminescent Substrate. Blots were then scanned and quantified using ImageJ software.

For test [7], the system named is C2C12 cells. Nature of the test: Glucose uptake in differentiated C2C12 myocytes. Type of test: cell-based, mouse. Here is the method:
as §1
Differentiated C2C12 cells were washed twice with Krebs-Ringer phosphate buffer and incubated in serum free low glucose DMEM for 3 hours. Cells were then treated with 100 nM insulin for 15 min and subsequently incubated in Krebs-Ringer phosphate buffer containing […] of 2-deoxy-d-[^3H]glucose for 20 min. The reaction was terminated by adding ice-cold PBS on plates on ice. After three washes with PBS, the cells were dissolved in 0.1% sodium dodecyl sulfate and radioactivity was quantified by liquid scintillation counting. Nonspecific deoxyglucose uptake was measured in the presence of […] cytochalasin B and was subtracted from the total uptake to get specific glucose uptake.

In test [8] the test system is 3T3-L1 cells. Nature of the test: Lipid accumulation in 3T3-L1 adipocytes (Oil Red O staining). The settings on record: 3T3-L1 murine adipocytes, G-1 during differentiation. Type of test: cell-based, mouse. The procedure:
as §3, §2

Structures are written as SMILES. Entries after “also recorded” stand apart in the source; their conditions may differ.

Consider `CC(=O)c1ccc2c(c1)C1C=CCC1C(c1cc3c(cc1Br)OCO3)N2` (centres unmarked) [G-1], for which the lipid accumulation result in test [1] is listed as “decreased lipid accumulation; also recorded: inhibits lipid accumulation”. For the same molecule, in test [2], the “expression of adipogenic markers PPARγ and ap2” value is given as “lower levels of adipogenic markers; also recorded: down regulates”. Further, the mitochondrial biogenesis result in test [3] is on record as “increased the mitochondrial biogenesis; also recorded: increases mitochondrial biogenesis”. In test [4], the fasting glucose levels entry was “lower fasting glucose levels; also recorded: decreases fasting blood glucose”, the “glucose tolerance (glucose tolerance test)” value is listed as “improves glucose tolerance” and the “insulin sensitivity (insulin tolerance test)” value is given as “improved insulin sensitivity; also recorded: enhances insulin sensitivity”. For the same molecule, the total body weight result in test [4] (G-1 200 μg, 5 days per week, subcutaneously for 8 weeks vs vehicle) is given as “attenuates weight gain; also recorded: decrease in the total body weight”. Also, in test [4] (after 8 week treatment), the liver weights entry is listed as “significant decrease in liver weights; also recorded: lower” and the “perirenal adipose fat pad weights” value is “significant decrease; also recorded: lower”. In test [4] (metabolic cages), the “energy expenditure (O2 consumption)” value was “increase in O2 consumption; also recorded: increased energy expenditure”. Moreover, in test [5], the “adipocyte size in perigonadal fat (H&E staining)” value is given as “smaller adipocytes”; the “antioxidant markers in muscle and liver” value was “increases antioxidant markers”; the fasting glucose levels entry is on record as “lower fasting glucose levels; also recorded: decreases fasting blood glucose”; the “glucose tolerance (glucose tolerance test)” value is “improves glucose tolerance”. In test [5], the “insulin sensitivity (insulin tolerance test)” value is “enhances insulin sensitivity”. For the same molecule, the total body weight entry in test [5] (G-1 200 μg, 3 days per week, subcutaneously for 6 weeks vs vehicle) is given as “attenuates weight gain; also recorded: decrease in the total body weight”. The “weights of perigonadal fat pads” value in test [5] (after 6 week treatment) is reported as “decreased weights of perigonadal fat pads; also recorded: lower”. The “mRNA levels of pro-inflammatory, angiogenic and lipogenic markers in adipose tissue” value in test [5] (gonadal fat, quantitative PCR) was “lower; also recorded: reduces inflammatory, angiogenic and lipogenic markers”. Further, the “energy expenditure (O2 consumption)” value in test [5] (metabolic cages) is recorded as “increase in O2 consumption; also recorded: increased energy expenditure”. For the same molecule, the “pro-inflammatory and lipogenic markers in skeletal muscle and liver” value in test [5] (quantitative PCR) was “decreased pro-inflammatory and lipogenic markers; also recorded: reduces lipogenic and inflammation”. Besides, the AMPK activation result in test [6] is listed as “activated AMP-activated protein kinase (AMPK); also recorded: activates AMPK”. The “cellular uptake of glucose” value in test [7] is given as “increased the cellular uptake of glucose; also recorded: increases glucose uptake”. Moreover, the lipid accumulation result in test [8] was “decreased lipid accumulation; also recorded: inhibits lipid accumulation”.
